This is an account of results in ChEMBL document CHEMBL1121545, “Synthesis of potential inhibitors of hypoxanthine-guaine phosphoribosyltransferase for testing as antiprotozoal agents. 2. 1-Substituted hypoxanthines” (1980).

In assay [1] the target is T1, Hypoxanthine-guanine phosphoribosyltransferase (Homo sapiens) (UniProt P00492).
T1 sequence (whole entry): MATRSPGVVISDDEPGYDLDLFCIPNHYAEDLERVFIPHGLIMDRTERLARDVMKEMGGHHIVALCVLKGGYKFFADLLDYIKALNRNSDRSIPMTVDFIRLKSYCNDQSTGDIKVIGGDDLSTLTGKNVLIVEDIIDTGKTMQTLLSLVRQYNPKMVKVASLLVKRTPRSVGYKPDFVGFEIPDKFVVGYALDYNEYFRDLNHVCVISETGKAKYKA
Briefly: Compound was tested for the inhibition of Hypoxanthine-Guanine Phosphoribosyltransferase (from H.Ep.2 cells); no activity.

Assay [2] is filed under the species Mus musculus. Description: Compound was tested for ability to extend the life span of Plasmodium berghei infected mice (Mus musculus); no activity. Type of assay: functional, organism-based.
Assay [3] concerns Mus musculus. Description: Compound was tested for the effective dose required for the inhibition of Trypanosoma rhodesiense in mice at 212 mg/kg dose in mice; (1 mice survived of 5 treated). Type of assay: functional.
For assay [4], the system named is Mus musculus. Description: Compound was tested for the effective dose required for the inhibition of Trypanosoma rhodesiense in mice at 424 mg/kg dose in mice; (2 mice survived of 5 treated). In kind it is functional.
The test system of assay [5] is Mus musculus. Briefly: Compound was tested for the effective dose required for the inhibition of Trypanosoma rhodesiense in mice at 106 mg/kg dose in mice; (1 mice survived of 5 treated). Type of assay: functional.

Structures are written as SMILES. The source made the active and inactive calls. No cut-off for these calls is given here.

On to `O=[N+]([O-])c1ccc(Cn2cnc3ncnc-3c2O)cc1`, for which the result (in assay [1]; in the assay listed under Mus musculus [2]) was inactive.
With `O=C(Nc1ccc(Cn2cnc3ncnc-3c2O)cc1)c1cccc(S(=O)(=O)F)c1`, the result (in assay [1]; in the assay filed under Mus musculus [2]) was inactive.
As to `[N-]=[N+]=NCCn1cnc2ncnc-2c1O`, the outcome (in assay [1]; in the assay filed under Mus musculus [2]) was inactive.
For `Oc1c2ncnc-2ncn1CCCl`, the result (in assay [1]; in the assay listed under Mus musculus [2]) was inactive.
Regarding `Nc1ccc(Cn2cnc3ncnc-3c2O)cc1`, the result (in assay [1]; in the assay filed under Mus musculus [2]) was inactive.
With `NCCn1cnc2ncnc-2c1O`, the result (in assay [1]; in the assay filed under Mus musculus [2]) was inactive.
Regarding `O=C(CBr)Nc1ccc(Cn2cnc3ncnc-3c2O)cc1`, the result (in assay [1]; in the assay filed under Mus musculus [2]) was inactive.
As for `O=C(CBr)NCCn1cnc2ncnc-2c1O`, the Survivals in the assay with Mus musculus [3] was 1; with Mus musculus [4] it was 2. In addition, the Activity with Mus musculus [5] was 1.
In the case of `O=C(Nc1ccc(Cn2cnc3ncnc-3c2O)cc1)c1ccc(Cl)cc1`, the result (in assay [1]; in the assay listed under Mus musculus [2]) was inactive.
Consider `OCCOc1[nH]cnc2ncnc1-2`, for which the result (in assay [1]; in the assay filed under Mus musculus [2]) was inactive.
For the molecule `O=C(Nc1ccc(Cn2cnc3ncnc-3c2O)cc1)c1ccc(S(=O)(=O)F)cc1`, the result (in assay [1]; in the assay listed under Mus musculus [2]) was inactive.
